Measured values from patent US9441006B2, “Polymorph of 2-[4-[(methylamino)carbonyl]-1H-pyrazol-1-yl]adenosine” (Farmak, a.s., priority 2013, dated 2016).
Like-named read-outs stand apart in the source and are kept apart here.

Assays:
[1] = background art, WO 2008/143667, cited from earlier work
[2] = Dissolution rate in water (Lasentec FBRM particle size distribution measurement); format: physicochemical; settings: 165 mg in 500 ml water, identical conditions, FIG. 4
Procedure: Equal amounts of both polymorphs (165 mg) were dissolved in the same amounts of water (500 ml) under identical conditions (dissolving regime, stirrer revolutions, etc.). It is obvious that the dissolution rate of polymorph E is approximately twofold. Polymorph E is completely dissolved within about 45 minutes, whereas the same amount of polymorph A is, under same conditions, dissolved after about 90 minutes.

[3] = Solubility of polymorph E in water in comparison with polymorph A; format: physicochemical; settings: at different temperatures
[4] = all known polymorphic forms; cited from earlier work

For CNC(=O)c1cnn(-c2nc(N)c3ncn([C@@H]4O[C@H](CO)[C@@H](O)[C@H]4O)c3n2)c1 [amorphous form, 2-[4-[(methylamino)carbonyl]-1H-pyrazol-1-yl]adenosine], the “stability of the polymorph” value [1] is listed as “unstable”.
For CNC(=O)c1cnn(-c2nc(N)c3ncn([C@@H]4O[C@H](CO)[C@@H](O)[C@H]4O)c3n2)c1 [polymorph A, 2-[4-[(methylamino)carbonyl]-1H-pyrazol-1-yl]adenosine monohydrate], the “time to complete dissolution in water” value ([2]; monohydrate) is given as “about 90 minutes” and the “stability of the polymorph” value ([1]; monohydrate) is given as “relatively stable”.
In the case of CNC(=O)c1cnn(-c2nc(N)c3ncn([C@@H]4O[C@H](CO)[C@@H](O)[C@H]4O)c3n2)c1 [Polymorph C, 2-[4-[(methylamino)carbonyl]-1H-pyrazol-1-yl]adenosine], the “stability of the polymorph” value [1] is listed as “converted to unstable forms by heating”.
With CNC(=O)c1cnn(-c2nc(N)c3ncn([C@@H]4O[C@H](CO)[C@@H](O)[C@H]4O)c3n2)c1 [polymorph E, 2-[4-[(methylamino)carbonyl]-1H-pyrazol-1-yl]adenosine] the “dissolution rate in water relative to polymorph A” value [2] was “approximately twofold”, the “time to complete dissolution in water” value [2] was “about 45 minutes” and the solubility in water [3] was “practically the same”.
For CNC(=O)c1cnn(-c2nc(N)c3ncn([C@@H]4O[C@H](CO)[C@@H](O)[C@H]4O)c3n2)c1 [regadenoson, 2-[4-[(Methylamino)carbonyl]-1H-pyrazol-1-yl]adenosine], the water solubility [4] is listed as “poor water solubility”.
